Data on 6 molecules can be found in ChEMBL document CHEMBL5725412, “Substituted pyrazolo[1,5-a]pyrazines as negative allosteric modulators of metabotropic glutamate receptor 3” (2017).

The experiment can be described thus: mGlu5 Ca2+ Flux Assay: HEK 293A cells stably expressing rat mGlu5 were plated in black-walled, clear-bottomed, poly-D-lysine coated 384-well plates in 20 μL of assay medium (DMEM containing 10% dialyzed FBS, 20 mM HEPES, 100 units/mL penicillin/streptomycin plus 250 ng/mL Fungizone, and 1 mM sodium pyruvate) at a density of 20K cells/well. The cells were grown overnight at 37° C. in the presence of 5% CO2. The next day, medium was removed and the cells incubated with 20 μL of 2.3 μM Fluo-4, AM prepared as a 2.3 mM stock in DMSO and mixed in a 1:1 ratio with 10% (w/v) pluronic acid F-127 and diluted in assay buffer (Hank's balanced salt solution, 20 mM HEPES, and 2.5 mM probenecid) for 45 minutes at 37° C. Dye was removed, 20 μL of assay buffer was added, and the plate was incubated for 5 minutes at room temperature. (In general: A change in cytosolic calcium serves as a functional read-out for many receptors and channels.)

The structures appear in SMILES notation.

As a reminder, the IC50 is the concentration that gives 50% inhibition. Consider `COc1ccc(NCc2cc3n(n2)CCN(c2ccc(F)c(F)c2)C3=O)cc1`, for which the IC50 (HEK293-A) amounted to 1470 nM.

As for `Cc1cccc(NCc2cc3n(n2)[C@H](C)CN(c2ccc(F)cc2)C3=O)c1`, the IC50 is 1210 nM.

For the molecule `COc1ccc(N(C)Cc2cc3n(n2)CCN(c2ccc(OC)cc2)C3=O)cc1`, the concentration for half-maximal inhibition (IC50) (HEK293-A) was found to be 2880 nM.

In the case of `COc1ccc(N(C)Cc2cc3n(n2)CCN(c2c(F)cccc2F)C3=O)cc1`, the IC50 (HEK293-A) was determined as 1020 nM.

As to `Cc1cccc(NCc2cc3n(n2)[C@@H](C)CN(c2ccc(F)cc2)C3=O)c1`, the IC50 (HEK293-A) was determined as 1840 nM.

On to `O=C1c2cc(CNc3ccc(OC(F)F)cc3)nn2CCN1c1ccc(F)cc1`, for which the concentration for half-maximal inhibition (IC50) stood at 334 nM.
